According to patent US4945162A, “Novel radioactive propyl 2-iodospiroperidol and processes for the preparation thereof” (Sumitomo Chemical Company, Limited, priority 1986, dated 1990):

Target: T1, Dopamine Receptors (Rat Striatal Membranes) (Rattus norvegicus, UniProt P61169)
T1 construct: For ^3 H-SP to Rat Striatal Membranes; from tissue; host or cells: rat striatum (membranes)
Test: Inhibition of specific ^3 H-SP binding (dopamine receptor binding affinity) to rat striatal membranes
Conditions: for Ki / IC50: 23° C., 30 minutes, ketanserine present; for IC50: nonspecific binding with (+)butaclamol, triplicate; for Relative Potency: relative to 2-ISP = 100
Description: PISP, 2-ISP and MISP were screened as for the dopamine receptor binding affinity according to the method reported by Hamblin [Biochem. Pharmacol. 33, 877-887 (1984)]. An aliquot of striatal membrane preparations was incubated at 23° C. for 30 minutes with each of the unlabeled competing drugs (PISP, 2-ISP and MISP) in different concentration, ketanserine and ^3 H-spiroperidol (hereinafter referred to as ^3 H-SP). The incubation was terminated by adding ice-cold TEAN buffer followed by a rapid filtration through a Whatman GF/B filter. The bound ^3 H-SP retained on the filter was extracted with ACS II (Amersham) and counted. All incubations were done in triplicate. Nonspecific binding was determined in tubes containing (+)butaclamol. Specific binding was calculated by subtracting the nonspecific binding from the total binding. IC50 values, the concentrations of the tested compounds that cause 50% inhibition of the specific ^3 H-SP binding, were assessed using from six to eight samples at different concentrations, in triplicate.

T1 sequence (P61169 whole entry): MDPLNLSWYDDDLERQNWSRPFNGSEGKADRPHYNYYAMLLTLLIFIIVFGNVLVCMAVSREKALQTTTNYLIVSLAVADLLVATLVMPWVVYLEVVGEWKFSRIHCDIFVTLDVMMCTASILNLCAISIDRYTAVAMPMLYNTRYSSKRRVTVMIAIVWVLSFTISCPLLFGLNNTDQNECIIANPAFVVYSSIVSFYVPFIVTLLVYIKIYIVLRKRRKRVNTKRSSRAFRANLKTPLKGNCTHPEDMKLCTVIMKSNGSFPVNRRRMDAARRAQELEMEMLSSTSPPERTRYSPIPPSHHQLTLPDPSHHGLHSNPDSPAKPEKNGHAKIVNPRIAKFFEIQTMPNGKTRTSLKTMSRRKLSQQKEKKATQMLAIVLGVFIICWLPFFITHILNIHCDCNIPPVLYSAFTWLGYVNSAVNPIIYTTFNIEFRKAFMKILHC

O=C(CCCN1CCC2(CC1)C(=O)NCN2c1ccccc1)c1ccc(F)cc1I [2-ISP, 2-iodospiroperidol]
Ki: 1 nM | IC50: 11 nM | Relative Potency: 100

CN1CN(c2ccccc2)C2(CCN(CCCC(=O)c3ccc(F)cc3I)CC2)C1=O [MISP, methyl 2-iodospiroperidol]
Ki: 5 nM | IC50: 55 nM | Relative Potency: 20

CCCN1CN(c2ccccc2)C2(CCN(CCCC(=O)c3ccc(F)cc3I)CC2)C1=O [PISP, 8-[4-(4-fluoro-2-iodophenyl)-4-oxobutyl]-3-propyl-1-phenyl-1,3,8-triazaspiro[4.5]decan-4-one]
Ki: 0.2 nM | IC50: 2.5 nM | Relative Potency: 500
